Tests used:
[1] = Inhibition of Baker's yeast Alpha-glucosidase-1 using p-nitrophenyl-alpha-D-glucopyranoside as substrate preincubated for 10 mins prior substrate addition measured after 20 mins by spectrophotometry; design: species or system Saccharomyces cerevisiae
[2] = target: Sucrase-isomaltase, intestinal (Rattus norvegicus) (UniProt P23739); test: Inhibition of rat intestinal alpha-glucosidase sucrase using sucrose as substrate at 10 mg/mL preincubated for 10 mins prior substrate addition measured after 40 mins by spectrophotometry
Saccharomyces cerevisiae [3] = test: Inhibition of Baker's yeast Alpha-glucosidase-1 using p-nitrophenyl-alpha-D-glucopyranoside as substrate at 10 mg/mL preincubated for 10 mins prior substrate addition measured after 20 mins by spectrophotometry
[4] = target: Lysosomal alpha-glucosidase (Rattus norvegicus) (UniProt Q6P7A9); test: Inhibition of rat intestinal alpha-glucosidase maltase using maltose as substrate at 10 mg/mL preincubated for 10 mins prior substrate addition measured after 40 mins by spectrophotometry
Beta-galactosidase = target: T1, Beta-galactosidase (Homo sapiens, UniProt P16278); test: Inhibition of beta-galactosidase
T1 sequence (P16278 whole entry): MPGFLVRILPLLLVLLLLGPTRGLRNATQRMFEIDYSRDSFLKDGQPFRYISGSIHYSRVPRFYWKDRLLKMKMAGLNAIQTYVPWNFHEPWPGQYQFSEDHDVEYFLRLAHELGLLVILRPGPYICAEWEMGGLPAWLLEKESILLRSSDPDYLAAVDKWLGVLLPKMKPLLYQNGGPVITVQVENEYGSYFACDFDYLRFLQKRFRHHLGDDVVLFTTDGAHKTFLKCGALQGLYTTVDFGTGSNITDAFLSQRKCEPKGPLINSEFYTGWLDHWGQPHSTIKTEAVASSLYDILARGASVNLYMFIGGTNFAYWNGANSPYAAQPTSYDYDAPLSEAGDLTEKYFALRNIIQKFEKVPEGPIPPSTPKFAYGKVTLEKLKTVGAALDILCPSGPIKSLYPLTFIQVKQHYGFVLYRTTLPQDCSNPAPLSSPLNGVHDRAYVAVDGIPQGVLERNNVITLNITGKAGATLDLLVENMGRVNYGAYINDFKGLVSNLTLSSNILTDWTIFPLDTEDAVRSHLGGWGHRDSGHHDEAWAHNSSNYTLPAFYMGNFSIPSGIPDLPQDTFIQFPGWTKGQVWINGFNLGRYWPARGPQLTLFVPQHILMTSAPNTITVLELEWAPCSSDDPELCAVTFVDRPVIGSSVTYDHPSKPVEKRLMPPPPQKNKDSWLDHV

Saccharomyces cerevisiae [5] = test: Ratio of acarbose IC50 to compound IC50 for Baker's yeast Alpha-glucosidase-1

Chain of Lysosomal alpha-glucosidase (Rattus norvegicus) (Q6P7A9 whole entry): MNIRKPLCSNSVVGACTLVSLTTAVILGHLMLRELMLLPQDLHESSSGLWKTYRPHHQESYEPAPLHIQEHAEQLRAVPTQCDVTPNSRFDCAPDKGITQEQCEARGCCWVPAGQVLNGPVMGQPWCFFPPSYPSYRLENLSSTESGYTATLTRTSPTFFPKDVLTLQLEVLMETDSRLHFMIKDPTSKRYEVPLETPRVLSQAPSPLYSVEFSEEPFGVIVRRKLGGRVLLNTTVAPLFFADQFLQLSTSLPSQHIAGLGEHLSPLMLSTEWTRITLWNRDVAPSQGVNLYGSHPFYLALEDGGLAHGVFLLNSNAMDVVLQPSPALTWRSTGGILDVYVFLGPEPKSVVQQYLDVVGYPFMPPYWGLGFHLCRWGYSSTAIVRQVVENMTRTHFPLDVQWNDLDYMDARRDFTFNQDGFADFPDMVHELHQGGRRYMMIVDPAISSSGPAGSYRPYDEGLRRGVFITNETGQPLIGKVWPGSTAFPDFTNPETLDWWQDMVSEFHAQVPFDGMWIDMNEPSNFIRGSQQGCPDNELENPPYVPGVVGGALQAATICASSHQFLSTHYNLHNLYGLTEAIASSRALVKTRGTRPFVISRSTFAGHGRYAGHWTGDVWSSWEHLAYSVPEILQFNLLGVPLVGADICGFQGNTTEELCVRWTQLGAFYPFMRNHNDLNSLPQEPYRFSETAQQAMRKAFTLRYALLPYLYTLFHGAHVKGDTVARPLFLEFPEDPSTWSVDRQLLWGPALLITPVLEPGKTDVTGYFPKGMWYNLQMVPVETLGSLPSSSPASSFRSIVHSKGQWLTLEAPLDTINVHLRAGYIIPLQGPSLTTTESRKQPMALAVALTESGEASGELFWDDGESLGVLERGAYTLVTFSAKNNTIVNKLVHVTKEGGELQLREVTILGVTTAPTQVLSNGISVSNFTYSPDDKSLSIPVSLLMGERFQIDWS
Chain of Sucrase-isomaltase, intestinal (Rattus norvegicus) (P23739 1-1013 limits assumed): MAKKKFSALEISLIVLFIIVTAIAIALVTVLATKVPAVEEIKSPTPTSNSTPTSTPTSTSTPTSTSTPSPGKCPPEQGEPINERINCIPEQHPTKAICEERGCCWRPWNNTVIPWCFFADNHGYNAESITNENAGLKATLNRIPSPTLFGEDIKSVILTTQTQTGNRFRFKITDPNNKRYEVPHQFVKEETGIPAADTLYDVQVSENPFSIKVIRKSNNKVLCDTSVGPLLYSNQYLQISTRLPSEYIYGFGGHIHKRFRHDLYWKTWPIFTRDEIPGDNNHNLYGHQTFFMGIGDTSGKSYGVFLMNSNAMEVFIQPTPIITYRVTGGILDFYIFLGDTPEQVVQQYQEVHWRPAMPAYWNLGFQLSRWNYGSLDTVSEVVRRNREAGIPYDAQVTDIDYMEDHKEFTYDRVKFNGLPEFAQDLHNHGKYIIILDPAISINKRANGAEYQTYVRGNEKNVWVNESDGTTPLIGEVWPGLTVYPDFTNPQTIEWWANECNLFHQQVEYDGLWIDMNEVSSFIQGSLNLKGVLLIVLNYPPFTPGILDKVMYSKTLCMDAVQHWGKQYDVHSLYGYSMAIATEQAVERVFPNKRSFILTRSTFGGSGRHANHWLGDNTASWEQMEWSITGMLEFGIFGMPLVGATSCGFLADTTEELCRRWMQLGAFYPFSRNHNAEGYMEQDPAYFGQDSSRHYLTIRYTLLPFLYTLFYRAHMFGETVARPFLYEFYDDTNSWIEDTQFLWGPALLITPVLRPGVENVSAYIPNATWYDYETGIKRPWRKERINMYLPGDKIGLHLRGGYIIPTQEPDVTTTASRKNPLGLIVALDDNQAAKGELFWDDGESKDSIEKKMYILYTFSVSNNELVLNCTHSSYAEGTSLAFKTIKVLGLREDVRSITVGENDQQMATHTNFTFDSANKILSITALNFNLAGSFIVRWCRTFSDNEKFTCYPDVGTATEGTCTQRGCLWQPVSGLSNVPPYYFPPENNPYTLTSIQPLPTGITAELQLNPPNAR
Chain of Sucrase-isomaltase, intestinal (Rattus norvegicus) (P23739 1014-1841 limits assumed): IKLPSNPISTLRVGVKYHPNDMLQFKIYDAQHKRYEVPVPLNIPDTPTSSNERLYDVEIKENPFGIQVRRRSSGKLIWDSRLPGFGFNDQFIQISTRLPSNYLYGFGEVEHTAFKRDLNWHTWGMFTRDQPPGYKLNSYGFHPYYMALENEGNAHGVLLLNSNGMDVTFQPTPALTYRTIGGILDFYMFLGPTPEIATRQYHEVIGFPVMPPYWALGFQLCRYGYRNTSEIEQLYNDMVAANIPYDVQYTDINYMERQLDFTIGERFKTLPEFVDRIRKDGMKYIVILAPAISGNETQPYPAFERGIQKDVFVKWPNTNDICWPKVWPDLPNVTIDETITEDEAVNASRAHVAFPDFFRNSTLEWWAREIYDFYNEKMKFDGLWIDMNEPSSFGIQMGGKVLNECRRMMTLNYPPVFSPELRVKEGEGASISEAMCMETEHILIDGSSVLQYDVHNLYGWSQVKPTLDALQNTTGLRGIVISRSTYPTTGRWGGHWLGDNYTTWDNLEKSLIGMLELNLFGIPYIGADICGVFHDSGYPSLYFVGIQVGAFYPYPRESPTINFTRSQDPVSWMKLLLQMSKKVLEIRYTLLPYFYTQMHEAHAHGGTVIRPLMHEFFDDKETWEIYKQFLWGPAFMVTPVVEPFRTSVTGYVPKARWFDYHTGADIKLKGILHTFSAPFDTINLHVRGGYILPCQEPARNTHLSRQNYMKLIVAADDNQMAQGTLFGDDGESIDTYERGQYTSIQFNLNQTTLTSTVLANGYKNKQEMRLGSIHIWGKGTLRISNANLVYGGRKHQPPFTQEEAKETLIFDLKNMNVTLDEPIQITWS

| SMILES | IC50 [1] [µM] | inhibition [2] [%] | inhibition (Saccharomyces cerevisiae [3]) [%] | inhibition [4] [%] | IC50 (Beta-galactosidase) [µM] | Ratio IC50 (Saccharomyces cerevisiae [5]) |
| --- | --- | --- | --- | --- | --- | --- |
| C[C@H]1O[C@H](O[C@H]2[C@H](O)[C@@H](O)[C@@H](O[C@H]3[C@H](O)[C@@H](O)C(O)O[C@@H]3CO)O[C@@H]2CO)[C@H](O)[C@@H](O)[C@@H]1N[C@H]1C=C(CO)[C@@H](O)[C@H](O)[C@H]1O (stereo not given in full) [ACARBOSE] | 404 |  |  |  |  |  |
| O[C@H]1[C@H](O)[C@H](O)[C@@H](O)[C@H](O)[C@H]1O | 1260 | < 30 |  | < 30 |  |  |
| O[C@H]1[C@@H](O)[C@@H](O)[C@@H](O)[C@@H](O)[C@@H]1O | 476 | < 30 |  | < 30 |  |  |

Second part, the compound after the results:

| IC50 [1] [µM] | inhibition [2] [%] | inhibition (Saccharomyces cerevisiae [3]) [%] | inhibition [4] [%] | IC50 (Beta-galactosidase) [µM] | Ratio IC50 (Saccharomyces cerevisiae [5]) | SMILES |
| --- | --- | --- | --- | --- | --- | --- |
|  | < 30 | < 30 | < 30 |  |  | OC1[C@@H](O)[C@H](O)C[C@@H](O)[C@@H]1O (stereo not given in full) |
|  |  |  |  | 600 |  | O[C@@H]1[C@@H](O)[C@@H](O)C=C[C@H]1O (relative stereo) |
| 86.1 |  |  |  |  |  | O[C@@H]1[C@@H](O)[C@@H](O)C=C[C@H]1O [listing 1 of 2 here] |
|  | < 30 |  | < 30 |  | 5 | O[C@@H]1[C@@H](O)[C@@H](O)C=C[C@H]1O [listing 2 of 2 here] |

Reference: ChEMBL document CHEMBL1949549, “Concise synthesis of (+)-conduritol F and inositol analogues from naturally available (+)-proto-quercitol and their glucosidase inhibitory activity” (Bioorg Med Chem Lett, 2012)
